This passage reports EC50 and ΔTm results from patent US20220056044A1, “TRICYCLIC COMPOUNDS AS STING AGONISTS, AND PREPARATION METHODS AND MEDICINAL USES THEREOF” (Jiangsu Hengrui Medicine Co., Ltd., priority 2018, published 2022).

Assay [1] has as its target T1, STING in THP1-Dual KI-hSTING-R232 cells (Homo sapiens, UniProt Q86WV6, H232R).
T1 construct: host or cells: THP1-Dual KI-hSTING-R232 cells
In words: Human THP1 reporter cell assay (IRF luciferase reporter). The class given is cell-based. As to conditions: 24 hours incubation. As to the method: Test Example 2. Human THP1 Reporter Cell Assay
1. Human THP1-Dual KI-hSTING-R232 Cells (InvivoGen, Cat. #thpd-r232)
Activation of STING in THP1-Dual KI-hSTING-R232 cells was determined by measuring the luminescence signal resulting from the expression of the IRF luciferase reporter gene. All reagent preparation and assay procedures were conducted according to the protocols provided by InvivoGen. In brief, test compounds and cells (1×10^5 cells per well) were dispensed into 96-well plates with a final volume per well of 150 μl. Plates were incubated in a humidified, 5% CO2 incubator at 37° C. for 24 hours. The expression level of the reporter gene was measured by transferring 20 μl of the supernatant to a non-transparent 96-well plate to which 50 μl of QUANTI-LUC was dispensed into each well. The resulting luminescence signal was immediately read using a TECAN plate reader. The background luminescence signal from media was subtracted. The fold induction effect of the luminescence signal at each compound concentration was determined relative to controls that lack compound treatment. The plot of fold induction effect versus the log of compound concentration was fit in GraphPad Prism with a 4-parameter concentration response equation to calculate EC50 and Emax.
Activation of STING in THP1 of the compounds in the present invention was determined by the above assay, and EC50 values are shown in the following Table 4.

In another assay the test system is Human PBMC cells. In words: IFNβ secretion from human PBMC (ELISA). The class given is cell-based. The following applies: 5 hours incubation, IFNβ in supernatant by ELISA. As to the method: Test Example 3. IFNβ Secretion from Human PBMC
1. Human PBMC cells (STEMCELL Technologies)
Cryopreserved peripheral blood human mononuclear cells (PBMCs) were rapidly thawed and resuspended in Lymphocyte Media and centrifuged at 500×g for 5 minutes. The supernatant was removed and the cell pellets were gently resuspended in cell culture and compound dilution media. Then the cells were plated in a 96-well format at a concentration of 1.5×10^5 per well. The test compounds, at varying concentrations, or vehicle control (<0.3% DMSO) were mixed with the cells giving a final volume of 150 μl per well. The plates were incubated in a humidified, 5% CO2 incubator at 37° C. for 5 hours. After incubation, the human IFNβ in the supernatant and the IFNβ standard controls were measured using human IFNβ Quantikine ELISA kit according to the manufacturer's protocol. The absorbance at 450 nm was measured with Infinite M1000 plate reader and corrected by background reading at 540 nm of each well. The concentration of IFNβ secreted was calculated based on the standard curves. The plot of IFNβ concentration versus the log of compound concentration was fit in GraphPad Prism with a 4-parameter concentration response equation to calculate EC50 and Emax (see Table 5).

In assay [2] the target is T2, hSTING R232 c-terminal domain (Homo sapiens, UniProt Q86WV6, H232R).
T2 construct: Purified hSTING R232 (aa154-342)
The assay can be described thus: Thermal shift assay for measuring the relative binding affinity to hSTING R232 c-terminal domain. As to conditions: purified hSTING R232 (aa154-342), SYPRO Orange, Tm minus mean Tm of negative control. Here is the method: Thermal shift assay for measuring the relative binding affinity to hSTING R232 c-terminal domain.
From each of the 10 mM stock solutions of compounds in DMSO, dilutions are made to create samples with three concentrations 10 mM, 5 mM, and 2.5 mM. From these dilutions a final 50-fold dilution is made into assay buffer, giving concentrations of 200 μM, 100 μM, and 50 μM. From each of the buffer dilutions, 5 μL is added to the 384 well assay plate. A positive control is setup with cGAMP using the same dilution scheme as the ligands. A baseline thermal shift for the negative control is determined using buffer and 2% DMSO.
An aliquot of protein is thawed on ice and SYPRO orange reagent is brought to room temperature. The 5000×SYPRO orange stock is diluted in assay buffer to a concentration of 10×. Protein is diluted to a concentration of 10 μM in the prepared buffer/dye solution. Five micro-liters of protein/buffer/dye solution is added to each of the sample and control wells, and the plate is sealed with the provided films. The plate is centrifuged for 5 min at 20° C. at 1000 rpm.
On the Light Cycler instrument, measurements are made over a temperature gradient from 20° C. to 99° C. at 0.07° C./s and data acquisitions collected at a rate of 8/° C. are used to measure the change in fluorescence as a function of temperature. Data analysis is performed using the Roche Light Cycler Software to determine the melting temperature (Tm ° C.) of each sample. A mean Tm ° C. for the negative control is calculated and subtracted from each of the samples to generate the ΔTm ° C. values for each of the ligands.
The relative binding affinity to hSTING c-terminal domain of the compounds of the present invention was determined by the above assay, and ΔTm ° C. values are shown in the following Table 3.

The term EC50 denotes the concentration at which the effect is half-maximal. Low values mean higher potency in that assay, high ones lower potency in that assay. By ΔTm is commonly meant the change in melting temperature against a reference sample.

T1 sequence (Q86WV6 whole entry H232R): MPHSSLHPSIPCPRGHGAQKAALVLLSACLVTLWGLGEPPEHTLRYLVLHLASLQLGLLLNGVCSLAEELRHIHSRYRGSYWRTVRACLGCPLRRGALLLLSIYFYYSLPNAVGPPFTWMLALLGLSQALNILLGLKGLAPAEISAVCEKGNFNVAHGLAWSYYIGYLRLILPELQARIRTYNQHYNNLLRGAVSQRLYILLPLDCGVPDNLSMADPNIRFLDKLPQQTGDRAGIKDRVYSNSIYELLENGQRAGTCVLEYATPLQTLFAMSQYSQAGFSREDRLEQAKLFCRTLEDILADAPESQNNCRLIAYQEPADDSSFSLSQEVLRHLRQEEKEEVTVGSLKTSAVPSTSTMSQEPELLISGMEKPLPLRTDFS
T2 sequence (Q86WV6 154-342 H232R): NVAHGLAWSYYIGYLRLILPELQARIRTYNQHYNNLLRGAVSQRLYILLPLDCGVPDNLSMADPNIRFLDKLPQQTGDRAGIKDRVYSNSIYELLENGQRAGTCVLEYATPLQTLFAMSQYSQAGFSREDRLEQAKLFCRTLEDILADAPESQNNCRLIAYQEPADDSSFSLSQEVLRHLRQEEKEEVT

Take `CCn1nc(C)cc1C(=O)Nc1nc2cc(C(N)=O)cc3c2n1[C@@H](C/C=C/C[C@H]1COc2cc(C(N)=O)cc4nc(NC(=O)c5cc(C)nn5CC)n1c24)CO3` [Example 1, (3S,3″S)-3,3″-((E)-but-2-ene-1,4-diyl)bis(2-(1-ethyl-3-methyl-1H-pyrazole-5-carboxamido)-3,4-dihydro-5-oxa-1,2a-diazaacenaphthylene-7-carboxamide)]: the EC50 in assay [1] worked out at 200 nM; in the assay with Human PBMC cells, 0.22 µM. Moreover, the ΔTm at 100 µM in assay [2] stood at 14.6 °C.

On to `CCn1nc(C)cc1C(=O)Nc1nc2cc(C(N)=O)cc3c2n1[C@@H](C/C=C\C[C@H]1COc2cc(C(N)=O)cc4nc(NC(=O)c5cc(C)nn5CC)n1c24)CO3` [Example 2, (3S,3″S)-3,3″-((Z)-but-2-ene-1,4-diyl)bis(2-(1-ethyl-3-methyl-1H-pyrazole-5-carboxamido)-3,4-dihydro-5-oxa-1,2a-diazaacenaphthylene-7-carboxamide)], for which the values for the EC50 (in assay [1]; with Human PBMC cells) were 6 nM and 0.026 µM, respectively. Also, the ΔTm at 100 µM in assay [2] was 12.2 °C.

With `CCn1nc(C)cc1C(=O)Nc1nc2cc(C(=O)O)cc3c2n1[C@@H](C/C=C/C[C@H]1COc2cc(C(=O)O)cc4nc(NC(=O)c5cc(C)nn5CC)n1c24)CO3` [Example 3, (3S,3″S)-3,3″-((E)-but-2-ene-1,4-diyl)bis(2-(1-ethyl-3-methyl-1H-pyrazole-5-carboxamido)-3,4-dihydro-5-oxa-1,2a-diazaacenaphthylene-7-carboxylic acid)], the ΔTm at 100 µM in assay [2] is 5.9 °C.

`CCn1nc(C)cc1C(=O)Nc1nc2cc(C(N)=O)cc3c2n1[C@@H](C/C=C/C[C@H]1COc2cc(C(N)=O)cc4nc(NC(=O)C(C)(C)C)n1c24)CO3` [Example 4, (S)-3-((E)-4-((S)-7-carbamoyl-2-(1-ethyl-3-methyl-1H-pyrazole-5-carboxamido)-3,4-dihydro-5-oxa-1,2a-diazaacenaphthylen-3-yl)but-2-en-1-yl)-2-pivalamido-3,4-dihydro-5-oxa-1,2a-diazaacenaphthylene-7-carboxamide]: a half-maximal effect in assay [1] (EC50) was put at 11500 nM. Further, in assay [2], the ΔTm at 100 µM stood at 7.5 °C.

For `CCn1nc(C)cc1C(=O)Nc1nc2cc(C(N)=O)cc3c2n1[C@@H](CCCC[C@H]1COc2cc(C(N)=O)cc4nc(NC(=O)c5cc(C)nn5CC)n1c24)CO3` [Example 5, (3S,3″S)-3,3″-(butane-1,4-diyl)bis(2-(1-ethyl-3-methyl-1H-pyrazole-5-carboxamido)-3,4-dihydro-5-oxa-1,2a-diazaacenaphthylene-7-carboxamide)], the 50% effective concentration (EC50) in assay [1] was 430 nM. Also, the shift in melting temperature (ΔTm) at 100 µM in assay [2] was found to be 9.1 °C.

In the case of `CCn1nc(C)cc1C(=O)Nc1nc2cc(C(N)=O)cc3c2n1C(CC=CCC1CCCOc2cc(C(N)=O)cc4nc(NC(=O)c5cc(C)nn5CC)n1c24)CCCO3` (centres unmarked) [Example 7, 10,10″-(but-2-ene-1,4-diyl)bis(1-(1-ethyl-3-methyl-1H-pyrazole-5-carboxamido)-7,8,9,10-tetrahydro-6-oxa-2,10a-diazacycloocta[cd]indene-4-carboxamide)], the ΔTm at 100 µM in assay [2] turned out to be 6.2 °C.

`CCn1nc(C)cc1C(=O)Nc1nc2cc(C(N)=O)cc3c2n1C(CC=CC[C@H]1COc2cc(C(N)=O)cc4nc(NC(=O)c5cc(C)nn5CC)n1c24)CCCO3` (stereo partly drawn) [Example 8, 10-(4-((S)-7-carbamoyl-2-(1-ethyl-3-methyl-1H-pyrazole-5-carboxamido)-3,4-dihydro-5-oxa-1,2a-diazaacenaphthylen-3-yl)but-2-en-1-yl)-1-(1-ethyl-3-methyl-1H-pyrazole-5-carboxamido)-7,8,9,10-tetrahydro-6-oxa-2,10a-diazacycloocta[cd]indene-4-carboxamide] registered an EC50 in assay [1] of 6400 nM.

With `CCn1nc(C)cc1C(=O)Nc1nc2cc(C(N)=O)cc3c2n1[C@@H](C/C=C/C[C@H]1CN(C)c2cc(C(N)=O)cc4nc(NC(=O)c5cc(C)nn5CC)n1c24)CN3C` [Example 9, (4S,4′S)-4,4′-((E)-but-2-ene-1,4-diyl)bis(2-(1-ethyl-3-methyl-1H-pyrazole-5-carboxamido)-6-methyl-5,6-dihydro-4H-imidazo[1,5,4-de]quinoxaline-8-carboxamide)], the results for the 50% effective concentration (EC50) (in assay [1]; with Human PBMC cells) were 54 nM and 0.14 µM, respectively.

On to `CCn1nc(C)cc1C(=O)Nc1nc2cc(C(N)=O)cc3c2n1[C@@H](C/C=C\C[C@H]1CN(C)c2cc(C(N)=O)cc4nc(NC(=O)c5cc(C)nn5CC)n1c24)CN3C` [Example 10, (4S,4′S)-4,4′-((Z)-but-2-ene-1,4-diyl)bis(2-(1-ethyl-3-methyl-1H-pyrazole-5-carboxamido)-6-methyl-5,6-dihydro-4H-imidazo[1,5,4-de]quinoxaline-8-carboxamide)], for which the EC50 turned out to be 12 nM in assay [1] and 0.05 µM in the assay with Human PBMC cells.

Regarding `CCn1nc(C)cc1C(=O)Nc1nc2cc(C(N)=O)cc3c2n1[C@@H](C/C=C/C[C@H]1CN(CCCOC)c2cc(C(N)=O)cc4nc(NC(=O)c5cc(C)nn5CC)n1c24)CN3CCCOC` [Example 11, (4S,4′S)-4,4′-((E)-but-2-ene-1,4-diyl)bis(2-(1-ethyl-3-methyl-1H-pyrazole-5-carboxamido)-6-(3-methoxypropyl)-5,6-dihydro-4H-imidazo[1,5,4-de]quinoxaline-8-carboxamide)], the EC50 was found to be 150 nM in assay [1] and 0.19 µM in the assay on Human PBMC cells.

As to `CCn1nc(C)cc1C(=O)Nc1nc2cc(C(N)=O)cc3c2n1[C@@H](C/C=C\C[C@H]1CN(CCCOC)c2cc(C(N)=O)cc4nc(NC(=O)c5cc(C)nn5CC)n1c24)CN3CCCOC` [Example 12, (4S,4′S)-4,4′-((Z)-but-2-ene-1,4-diyl)bis(2-(1-ethyl-3-methyl-1H-pyrazole-5-carboxamido)-6-(3-methoxypropyl)-5,6-dihydro-4H-imidazo[1,5,4-de]quinoxaline-8-carboxamide)], the EC50 was determined as 140 nM in assay [1] and 0.058 µM in the assay with Human PBMC cells.

The molecule `CCn1nc(C)cc1C(=O)Nc1nc2cc(C(N)=O)cc3c2n1[C@@H](C/C=C/C[C@H]1CN(CCCOC)c2cc(C(N)=O)cc4nc(NC(=O)c5cc(C)nn5CC)n1c24)CN3C` [Example 13, (S)-4-((E)-4-((S)-8-carbamoyl-2-(1-ethyl-3-methyl-1H-pyrazole-5-carboxamido)-6-(3-methoxypropyl)-5,6-dihydro-4H-imidazo[1,5,4-de]quinoxalin-4-yl)but-2-en-1-yl)-2-(1-ethyl-3-methyl-1H-pyrazole-5-carboxamido)-6-methyl-5,6-dihydro-4H-imidazo[1,5,4-de]quinoxaline-8-carboxamide] returned an EC50 in assay [1] of 180 nM.

`CCn1nc(C)cc1C(=O)Nc1nc2cc(C(N)=O)cc3c2n1[C@@H](C/C=C\C[C@H]1CN(CCCOC)c2cc(C(N)=O)cc4nc(NC(=O)c5cc(C)nn5CC)n1c24)CN3C` [Example 14, (S)-4-((Z)-4-((S)-8-carbamoyl-2-(1-ethyl-3-methyl-1H-pyrazole-5-carboxamido)-6-(3-methoxypropyl)-5,6-dihydro-4H-imidazo[1,5,4-de]quinoxalin-4-yl)but-2-en-1-yl)-2-(1-ethyl-3-methyl-1H-pyrazole-5-carboxamido)-6-methyl-5,6-dihydro-4H-imidazo[1,5,4-de]quinoxaline-8-carboxamide]: the response in assay [1] was half-maximal at 60 nM (EC50).
